According to PMC5007552, “The hVps34‐SGK3 pathway alleviates sustained PI3K/Akt inhibition by stimulating mTORC1 and tumour growth” (The EMBO Journal, 2016):

Assays:
SGK3 [1] = biological target: T1, SGK3 (Homo sapiens, UniProt Q96BR1); assay: IC50 on recombinant SGK3; assay type: biochemical; settings: Fig 5B / Appendix Fig S1B, recombinant kinase, unit inferred
T1 sequence (Q96BR1 1-496): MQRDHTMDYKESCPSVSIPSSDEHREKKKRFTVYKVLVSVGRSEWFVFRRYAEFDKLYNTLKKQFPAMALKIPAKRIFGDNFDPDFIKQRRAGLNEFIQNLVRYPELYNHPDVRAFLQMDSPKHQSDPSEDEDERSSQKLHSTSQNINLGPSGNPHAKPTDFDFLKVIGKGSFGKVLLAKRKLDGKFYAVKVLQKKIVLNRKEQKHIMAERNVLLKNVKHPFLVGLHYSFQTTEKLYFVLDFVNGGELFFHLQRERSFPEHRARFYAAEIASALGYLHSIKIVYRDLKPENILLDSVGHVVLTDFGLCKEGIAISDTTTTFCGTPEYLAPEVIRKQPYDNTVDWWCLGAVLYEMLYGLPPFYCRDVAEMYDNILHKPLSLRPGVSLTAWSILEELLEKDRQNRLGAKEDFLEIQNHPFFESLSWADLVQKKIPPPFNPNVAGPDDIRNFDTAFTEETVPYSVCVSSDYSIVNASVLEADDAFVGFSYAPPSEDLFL
Description: (§1) The result for each kinase is presented as a mean kinase activity of the reaction taken in triplicate relative to a control reaction where the inhibitors were omitted. […] SGK3 was immunoprecipitated from cell lysates and subjected to in vitro kinase assay by measuring phosphorylation of the Crosstide substrate peptide in the presence of 0.1 mM [γ‐^32P]ATP in a 30 min 30°C reaction (upper panel). Kinase reactions are presented as means ± SD for triplicate reaction.
(§2) Appendix Figure S1. […] (A) Chemical struc tures of
(§3) Sano/f_i-14g, -14i and -14n compounds. (B) IC50 values of inhibitors on indicated recombinant k inases. […]

S6K1 = S6K1 (Homo sapiens, UniProt P23443); assay: IC50 on recombinant S6K1 (p70S6K); assay type: biochemical; settings: Fig 5B / Appendix Fig S1B, recombinant kinase, unit inferred
Description: as §1, §2, §3

MLK1 = MLK1 (Homo sapiens, UniProt P80192); assay: IC50 on recombinant MLK1; assay type: biochemical; settings: Fig 5B / Appendix Fig S1B, recombinant kinase, unit inferred
Description: as §1, §2, §3

MLK3 = MLK3 (Homo sapiens, UniProt Q16584); assay: IC50 on recombinant MLK3; assay type: biochemical; settings: Fig 5B / Appendix Fig S1B, recombinant kinase, unit inferred
Description: as §1, §2, §3

PKBa = PKBa (Homo sapiens, UniProt P31749); assay: IC50 on recombinant PKBa (Akt1); assay type: biochemical; settings: Fig 5B / Appendix Fig S1B, recombinant kinase, unit inferred
Description: as §1, §2, §3

SGK3 [2] = biological target: T1, SGK3; assay: Immunoprecipitated endogenous SGK3 kinase activity (Crosstide) and SGK3 phosphorylation from treated cells; assay type: cell-based; parameters: we immunoprecipitated endogenous SGK3 and assessed protein kinase activity; endogenous in cells; host or cells: ZR-75-1; settings: for SGK3 hydrophobic motif and T-loop phosphorylation and SGK3 kinase activity: ZR-75-1, 0.1 μM, with or without 5 days 1 μM MK-2206; for SGK3 hydrophobic motif and T-loop phosphorylation and SGK3 kinase activity / basal SGK3 activity and phosphorylation: 1 h; for elevated SGK3 kinase activity, T-loop and hydrophobic motif phosphorylation induced by prolonged Class I PI3K or Akt inhibitor treatment: ZR-75-1, 5 days PI3K/Akt inhibitor, then 1 μM VPS34-IN1 or 0.3 μM SAR405 for 1 h; for basal SGK3 activity and phosphorylation: ZR-75-1 in serum, 1 μM VPS34-IN1 or 0.3 μM SAR405
Description: Briefly, SGK3, Akt and S6K1 were immunoprecipitated from 1 mg ZR‐75‐1 cell lysate. Immunoprecipitates were washed in sequence with lysis buffer containing high salt concentration (500 mM NaCl), lysis buffer and Buffer A (50 mM Tris pH 7.5, 0.1 mM EGTA). Kinase activity was assessed by measuring [γ‐^32P]ATP incorporation into Crosstide substrate peptide [[…]]. The reactions were carried in 40 μl total volume containing 0.1 mM [γ‐^32P]ATP (400–1,000 cpm/pmol), 10 mM magnesium acetate and 30 μM Crosstide peptide. Reactions were terminated by adding 10 μl 0.1 M EDTA and spotting 40 μl of the resulting reaction mix on P81 paper, which were immediately immersed into 50 mM orthophosphoric acid. Papers were washed at least five times in 50 mM orthophosphoric acid, rinsed in acetone and air‐dried. Radioactivity was quantified by Cerenkov counting. One unit of enzyme activity was defined as amount of enzyme that catalyses incorporation of 1 nmol of [γ‐^32P]ATP into the substrate over 1 min.

[3] = system: NDRG1 phosphorylation in ZR-75-1 cells; assay: Immunoblot of NDRG1 (Thr346) phosphorylation in breast cancer cells; assay type: cell-based, human; settings: for phosphorylation of PRAS40 (Thr246) and NDRG1 (Thr346): 1 μM, 1 h, ZR-75-1, CAMA-1 (and T47D for PI3K inhibitors); for concentration reducing NDRG1 phosphorylation to basal levels: ZR-75-1 pre-treated with 1 μM MK-2206 for 5 days, hVps34 inhibitor 1 h
Description: Cell lysates were subjected to immunoblot analysis with the indicated antibodies. • ZR‐75‐1 cells cultured in serum in the absence of Akt inhibitor were treated for 1 h with the indicated concentrations of VPS34‐IN1. […] One hour prior to lysis, the cells were incubated in the presence or absence of 1 μM VPS34‐IN1. SGK3 was immunoprecipitated from lysates and subjected to in vitro kinase assay by measuring phosphorylation of the Crosstide substrate peptide in the presence of 0.1 mM [γ‐^32P]ATP in a 30 min 30°C reaction (upper panel). Kinase reactions are presented as means ± SD for triplicate reaction. Immunoprecipitates (IP) and lysates were analysed by immunoblot with the indicated antibodies. […] SGK3 was immunoprecipitated from the lysates and subjected to in vitro kinase assay as in (C). Kinase reactions are presented as means ± SD for triplicate reaction. Immunoprecipitates (IP) and lysates (lower panel) were also subjected to immunoblot analysis with the indicated antibodies. • ZR‐75‐1 cells were cultured in the absence or presence of 1 μM MK‐2206 for 5 days. Cells were then treated in the absence or presence of 0.1 μM AZD8055 or 0.1 μM rapamycin for 1 h. SGK3 was immunoprecipitated and subjected to in vitro kinase assay as in (C). Kinase reactions are presented as means ± SD for triplicate reaction. The immunoprecipitates (IP) and lysates were analysed with the indicated antibodies.
One hour prior to lysis, the cells were incubated in the presence of absence of 0.3 μM SAR405. SGK3 was immunoprecipitated from lysates and subjected to in vitro kinase assay by measuring phosphorylation of the Crosstide substrate peptide in the presence of 0.1 mM [γ‐^32P]ATP in a 30 min 30°C reaction (upper panel). Kinase reactions are presented as means ± SD for triplicate reaction. Immunoprecipitates (IP) and lysates were also analysed by immunoblot with the indicated antibodies.
as §1
(§4) HEK293 cells were purchased from the American Tissue Culture Collection (ATCC). Cells were cultured in RPMI or DMEM media supplemented with 10% (v/v) foetal bovine serum, 2 mM L‐glutamine, 100 U/ml penicillin and 0.1 mg/ml streptomycin. Inhibitor treatments were carried out as described in figure legends. During 5 days inhibitor treatments, the media was changed after 72‐h intervals. The cells were lysed in buffer containing 50 mM Tris–HCl (pH 7.5), 150 mM NaCl, 1 mM EDTA, 1 mM EGTA, 1 mM sodium orthovanadate, 10 mM sodium glycerophosphate, 10 mM sodium pyrophosphate, 0.27 M sucrose, 0.1% (v/v) 2‐mercaptoethanol, 1 mM benzamidine and 0.1 mM PMSF. Lysates were clarified by centrifugation at 16,000 g for 10 min at 4°C. Protein concentration was calculated using Bradford assay (Thermo Scientific). Immunoblotting and immunoprecipitation were performed using standard procedures. The signal was developed using ECL Western Blotting Detection Kit (Amersham) on Amersham Hyperfilm ECL film (Amersham).

[4] = system: breast cancer cells that express high levels of SGK1; assay: NDRG1 phosphorylation in breast cancer cells that express high levels of SGK1; assay type: cell-based; settings: data not shown
ZR-75-1 cells = assay: Immunoblot of Akt/mTORC1 pathway markers (Akt, PRAS40, TSC2, S6K1, Rictor, S6, 4EBP1) in ZR-75-1 cells; assay type: cell-based, human; settings: for Akt phosphorylation and PRAS40 phosphorylation: ZR-75-1 in serum, hVps34 inhibitor 1 h
Description: Kinase reactions are presented as means ± SD for triplicate reaction. Immunoprecipitates (IP) were also analysed by immunoblot with the indicated antibodies. • SGK3 was knocked down in ZR‐75‐1 cells by using shRNA probe B and compared to a control shRNA probe, named sh scramble. After infection, the cells were kept for 2 days in puromycin selection media and then seeded for the experiment. The cells were treated with 1 μM MK‐2206 for 1 h or 5 days. The cell lysates were subjected to immunoblot analysis with the indicated antibodies.
The cell lysates were analysed by immunoblot using the antibody against phosphorylated Akt phosphorylation consensus motif (RxRxxpS/pT).
as §4

Sequence of MLK3 (Q16584 whole entry, species assumed): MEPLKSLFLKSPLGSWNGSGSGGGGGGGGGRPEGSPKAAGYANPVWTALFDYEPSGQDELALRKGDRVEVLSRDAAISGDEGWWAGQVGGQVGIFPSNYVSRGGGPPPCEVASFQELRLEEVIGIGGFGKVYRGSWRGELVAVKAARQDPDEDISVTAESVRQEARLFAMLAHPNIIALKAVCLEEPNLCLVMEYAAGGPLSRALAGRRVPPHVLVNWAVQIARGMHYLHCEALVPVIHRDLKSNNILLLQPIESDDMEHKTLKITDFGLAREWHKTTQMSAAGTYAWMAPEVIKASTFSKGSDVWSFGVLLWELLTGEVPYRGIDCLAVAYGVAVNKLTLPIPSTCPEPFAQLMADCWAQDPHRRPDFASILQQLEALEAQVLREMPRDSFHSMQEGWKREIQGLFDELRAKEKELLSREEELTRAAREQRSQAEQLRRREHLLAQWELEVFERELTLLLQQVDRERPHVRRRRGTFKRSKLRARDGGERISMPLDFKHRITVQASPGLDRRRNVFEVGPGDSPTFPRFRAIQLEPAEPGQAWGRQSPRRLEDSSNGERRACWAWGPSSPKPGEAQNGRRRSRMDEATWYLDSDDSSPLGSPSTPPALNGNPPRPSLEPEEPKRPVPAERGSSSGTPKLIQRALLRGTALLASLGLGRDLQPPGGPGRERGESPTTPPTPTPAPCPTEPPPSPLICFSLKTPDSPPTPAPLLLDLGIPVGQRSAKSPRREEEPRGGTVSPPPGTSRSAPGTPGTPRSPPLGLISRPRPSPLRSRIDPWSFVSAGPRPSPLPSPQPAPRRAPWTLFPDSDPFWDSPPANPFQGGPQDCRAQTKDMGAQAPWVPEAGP
Sequence of S6K1 (P23443 whole entry): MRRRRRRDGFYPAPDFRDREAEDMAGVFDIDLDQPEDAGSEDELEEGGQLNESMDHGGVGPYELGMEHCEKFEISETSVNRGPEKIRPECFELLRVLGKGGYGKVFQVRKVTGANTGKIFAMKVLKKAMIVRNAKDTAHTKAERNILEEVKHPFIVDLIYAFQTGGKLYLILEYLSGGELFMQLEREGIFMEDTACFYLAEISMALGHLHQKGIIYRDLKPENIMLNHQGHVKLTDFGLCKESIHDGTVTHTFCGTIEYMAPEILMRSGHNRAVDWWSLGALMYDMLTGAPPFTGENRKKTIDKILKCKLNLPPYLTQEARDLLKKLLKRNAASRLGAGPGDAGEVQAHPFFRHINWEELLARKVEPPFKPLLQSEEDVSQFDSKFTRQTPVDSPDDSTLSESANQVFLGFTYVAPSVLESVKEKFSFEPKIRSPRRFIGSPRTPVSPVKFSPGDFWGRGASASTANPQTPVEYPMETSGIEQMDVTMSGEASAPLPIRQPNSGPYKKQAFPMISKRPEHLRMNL
Sequence of PKBa (P31749 whole entry): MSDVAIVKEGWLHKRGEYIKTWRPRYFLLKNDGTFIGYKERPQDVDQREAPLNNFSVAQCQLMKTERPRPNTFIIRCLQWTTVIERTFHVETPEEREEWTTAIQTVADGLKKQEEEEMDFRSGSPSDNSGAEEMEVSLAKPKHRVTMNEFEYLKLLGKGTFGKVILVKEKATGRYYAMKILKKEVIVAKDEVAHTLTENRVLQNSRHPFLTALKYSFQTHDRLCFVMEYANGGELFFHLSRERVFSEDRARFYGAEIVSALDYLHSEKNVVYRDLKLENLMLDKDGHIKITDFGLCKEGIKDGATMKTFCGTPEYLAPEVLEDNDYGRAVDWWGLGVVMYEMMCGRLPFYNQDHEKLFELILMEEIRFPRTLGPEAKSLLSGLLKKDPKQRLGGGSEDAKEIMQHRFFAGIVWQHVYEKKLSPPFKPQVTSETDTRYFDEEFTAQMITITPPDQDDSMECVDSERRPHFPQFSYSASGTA
Sequence of MLK1 (P80192 whole entry, species assumed): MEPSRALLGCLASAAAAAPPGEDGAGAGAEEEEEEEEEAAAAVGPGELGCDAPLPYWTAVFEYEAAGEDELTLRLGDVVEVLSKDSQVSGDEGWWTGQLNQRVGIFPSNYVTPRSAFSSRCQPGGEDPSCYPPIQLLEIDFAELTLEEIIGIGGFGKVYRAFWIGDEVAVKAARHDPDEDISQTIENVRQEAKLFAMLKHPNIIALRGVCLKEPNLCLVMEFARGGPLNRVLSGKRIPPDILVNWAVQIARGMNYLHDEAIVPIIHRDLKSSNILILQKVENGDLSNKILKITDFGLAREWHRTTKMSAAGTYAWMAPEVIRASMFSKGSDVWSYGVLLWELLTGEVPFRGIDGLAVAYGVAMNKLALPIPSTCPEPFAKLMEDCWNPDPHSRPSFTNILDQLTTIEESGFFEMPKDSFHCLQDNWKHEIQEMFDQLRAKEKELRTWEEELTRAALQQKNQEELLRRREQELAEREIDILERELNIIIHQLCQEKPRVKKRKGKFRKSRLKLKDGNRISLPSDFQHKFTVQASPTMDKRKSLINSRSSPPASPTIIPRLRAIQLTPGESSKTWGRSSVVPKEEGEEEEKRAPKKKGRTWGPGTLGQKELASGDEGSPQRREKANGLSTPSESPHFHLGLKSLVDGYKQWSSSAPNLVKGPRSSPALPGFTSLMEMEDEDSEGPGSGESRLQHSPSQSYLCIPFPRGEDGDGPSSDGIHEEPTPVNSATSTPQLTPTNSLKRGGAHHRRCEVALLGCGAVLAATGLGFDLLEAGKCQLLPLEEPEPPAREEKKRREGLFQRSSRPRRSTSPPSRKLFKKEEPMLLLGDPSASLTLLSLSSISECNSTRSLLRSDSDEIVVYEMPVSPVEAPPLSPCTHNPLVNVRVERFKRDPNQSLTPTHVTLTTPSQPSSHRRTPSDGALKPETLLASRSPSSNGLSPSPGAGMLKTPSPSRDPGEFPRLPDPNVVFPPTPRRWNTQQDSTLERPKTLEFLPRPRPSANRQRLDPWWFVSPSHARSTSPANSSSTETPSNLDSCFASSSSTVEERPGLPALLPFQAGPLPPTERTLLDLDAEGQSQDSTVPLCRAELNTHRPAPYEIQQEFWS

Nc1[nH]nc2nc(-c3ccc(NS(=O)(=O)c4cc(Cl)ccc4F)cc3)cnc12 [14n]
IC50 (SGK3 [1]): 13 nM
IC50 (S6K1): 76 nM
IC50 (MLK1): 169 nM
IC50 (MLK3): 94 nM
IC50 (PKBa): > 10000 nM

COc1ccc(-c2ccc3c(N4CCOC[C@@H]4C)nc(N4CCOC[C@@H]4C)nc3n2)cc1CO [AZD8055]
SGK3 hydrophobic motif and T-loop phosphorylation and SGK3 kinase activity (SGK3 [2]): suppressed

Nc1cc(C(F)(F)F)c(-c2cc(N3CCOCC3)nc(N3CCOCC3)n2)cn1 [BKM120]
phosphorylation of PRAS40 (Thr246) and NDRG1 (Thr346) [3]: markedly suppressed

CCc1c(C(=O)NNC(=O)C(O)c2cc(F)cc(F)c2)ccc(O)c1C (stereo not shown) [EMD638683]
dose required to observe marginal reduction in NDRG1 phosphorylation [4]: 100 µM

CS(=O)(=O)N1CCN(Cc2cc3nc(-c4cccc5[nH]ncc45)nc(N4CCOCC4)c3s2)CC1 [GDC0941]
phosphorylation of PRAS40 (Thr246) and NDRG1 (Thr346) [3]: markedly suppressed

C[C@@H]1COCCN1c1cc(=O)n2c(n1)N(Cc1cncc(Cl)c1)[C@H](C(F)(F)F)CC2 [SAR405]
Akt phosphorylation and PRAS40 phosphorylation (ZR-75-1 cells): neither compound suppressed
elevated SGK3 kinase activity, T-loop and hydrophobic motif phosphorylation induced by prolonged Class I PI3K or Akt inhibitor treatment (SGK3 [2]): suppressed
basal SGK3 activity and phosphorylation (SGK3 [2]): to below control levels
concentration reducing NDRG1 phosphorylation to basal levels [3]: 0.3 µM

CC(C)(O)CNc1ncc(-c2ccnc(Nc3ccnc(Cl)c3)n2)c(CC2CC2)n1 [VPS34-IN1]
TSC2 or mTORC1 substrate phosphorylation (ZR-75-1 cells; ZR-75-1, 1 μM VPS34-IN1 alone, 1 h): did not have an effect
Akt phosphorylation and PRAS40 phosphorylation (ZR-75-1 cells): neither compound suppressed
elevated SGK3 kinase activity, T-loop and hydrophobic motif phosphorylation induced by prolonged Class I PI3K or Akt inhibitor treatment (SGK3 [2]): suppressed
basal SGK3 activity and phosphorylation (SGK3 [2]): to below control levels
concentration reducing NDRG1 phosphorylation to basal levels [3]: 1 µM

CO[C@H]1C[C@@H]2CC[C@@H](C)[C@@](O)(O2)C(=O)C(=O)N2CCCC[C@H]2C(=O)O[C@H]([C@H](C)C[C@@H]2CC[C@@H](O)[C@H](OC)C2)CC(=O)[C@H](C)/C=C(\C)[C@@H](O)[C@@H](OC)C(=O)[C@H](C)C[C@H](C)/C=C/C=C/C=C/1C [rapamycin]
SGK3 hydrophobic motif and T-loop phosphorylation and SGK3 kinase activity (SGK3 [2]): had no effect
